Reference: patent publication US11535633B2, “Fused tricyclic heterocycle compounds and therapeutic uses thereof” (Jiangsu Hengrui Medicine Co., Ltd., priority 2018, dated 2022)
pEC50: −log10 of the molar value.

How the values were obtained:
[1] = target: T1, hSTING c-terminal domain (purified hSTING aa154-342) (Homo sapiens, UniProt Q86WV6); assay: Thermal shift assay for measuring the relative binding affinity to hSTING c-terminal domain; conditions: Tm of sample minus mean Tm of negative control (buffer, 2% DMSO), SYPRO Orange
T1 construct: Purified hSTING (aa154-342)
T1 sequence (Q86WV6 154-342): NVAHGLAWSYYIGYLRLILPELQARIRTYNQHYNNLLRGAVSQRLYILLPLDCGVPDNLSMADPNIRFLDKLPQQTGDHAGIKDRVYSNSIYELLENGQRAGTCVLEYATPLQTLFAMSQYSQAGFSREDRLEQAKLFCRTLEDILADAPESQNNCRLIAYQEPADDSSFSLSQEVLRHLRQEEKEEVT
Description: Test Example 1. Thermal Shift Assay for Measuring the Relative Binding Affinity to hSTING c-Terminal Domain
From each of the 10 mM stock solutions of compounds in DMSO, dilutions are made to create samples with three concentrations 10 mM, 5 mM and 2.5 mM. From these dilutions a final 50 fold dilution is made into assay buffer, giving concentrations of 200 μM, 100 μM, and 50 μM. From each of the buffer dilutions, 5 μL is added to the 384 well assay plate. A positive control is setup with cGAMP using the same dilution scheme as the ligands. A baseline thermal shift for the negative control is determined using buffer and 2% DMSO.
An aliquot of protein is thawed on ice and SYPRO orange reagent is brought to room temperature. The 5000× SYPRO orange stock is diluted in assay buffer to a concentration of 10×. Protein is diluted to a concentration of 10 μM in the prepared buffer/dye solution. Five micro-liters of protein/buffer/dye solution is added to each of the sample and control wells, and the plate is sealed with the provided films. The plate is centrifuged for 5 min at 20° C. at 1000 rpm.
On the Light Cycler instrument, measurements are made over a temperature gradient from 20° C. to 99° C. at 0.07° C./s and data acquisitions collected at a rate of 8/° C. is used to measure the change in fluorescence as a function of temperature. Data analysis is performed using the Roche Light Cycler Software to determine the melting temperature (Tm ° C.) of each sample. A mean Tm ° C. for the negative control is calculated and subtracted from each of the samples to generate the ΔTm ° C. values for each of the ligands.
The relative binding affinity to hSTING c-terminal domain of the compounds of the present invention was determined by the above assay, and ΔTm ° C. values are shown in the following table 1.

[2] = target: T2, STING in THP1-Dual KI-hSTING-R232 cells (Homo sapiens, UniProt Q86WV6, H232R); assay: Human THP1 reporter cell assay (IRF luciferase reporter); assay type: cell-based; conditions: 24 hours incubation
T2 construct: host or cells: THP1-Dual KI-hSTING-R232 cells (human monocytic THP-1 reporter line)
T2 sequence (Q86WV6 whole entry H232R): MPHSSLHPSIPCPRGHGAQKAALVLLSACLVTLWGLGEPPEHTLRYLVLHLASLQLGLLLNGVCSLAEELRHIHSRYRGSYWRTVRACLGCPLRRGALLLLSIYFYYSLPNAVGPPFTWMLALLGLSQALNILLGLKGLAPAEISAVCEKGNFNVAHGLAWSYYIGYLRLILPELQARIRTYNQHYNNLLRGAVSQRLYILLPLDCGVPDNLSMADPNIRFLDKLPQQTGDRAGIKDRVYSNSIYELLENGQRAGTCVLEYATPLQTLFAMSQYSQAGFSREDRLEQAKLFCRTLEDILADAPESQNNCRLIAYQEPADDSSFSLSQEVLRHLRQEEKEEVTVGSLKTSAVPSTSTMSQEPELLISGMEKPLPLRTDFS
Description: Test Example 2. Human THP1 Reporter Cell Assay
• 1. Human THP1-Dual KI-hSTING-R232 Cells (InvivoGen, Cat. #thpd-r232) • 2. QUANTI-LUC (InvivoGen, Cat. #rep-qlc2) • 3. Media for cell culture and compound dilution: RPMI with high glucose and glutamine (Genesee, Cat. #25-506), 10% fetal bovine serum (Life Technologies, Cat. #10082147), 25 mM HEPES (Genesee, Cat. #25-534), 100 μg/ml Normocin (InvivoGen, Cat. #ant-nr-2), 10 μg/ml blasticidin (InvivoGen, Cat. #ant-bl-05), 100 μg/ml Zeocin (InvivoGen, Cat. #ant-zn-5p) and Penicillin-Streptomycin (100×) (Life Technologies, Cat. #15140122) • 4. Infinite M1000 plate reader (TECAN) Experimental Procedure
Activation of STING in THP1-Dual KI-hSTING-R232 cells was determined by measuring the luminescence signal resulting from the expression of the IRF luciferase reporter gene. All reagent preparation and assay procedures were conducted according to the protocols provided by InvivoGen. In brief, test compounds and cells (1×10^5 cells per well) were dispensed into 96-well plates with a final volume per well of 150 μl. Plates were incubated in a humidified, 5% CO2 incubator at 37° C. for 24 hours. The expression level of the reporter gene was measured by transferring 20 μl of the supernatant to a non-transparent 96-well plate to which 50 μl of QUANTI-LUC was dispensed into each well. The resulting luminescence signal was immediately read using a TECAN plate reader. The background luminescence signal from media was subtracted. The fold induction effect of the luminescence signal at each compound concentration was determined relative to controls that lack compound treatment. The plot of fold induction effect versus the log of compound concentration was fit in GraphPad Prism with a 4-parameter concentration response equation to calculate EC50 and Emax.
Activation of STING in THP1 of the compounds in the present invention was determined by the above assay, and EC50 values are shown in the following table 2.

Human PBMC cells = assay: IFNβ secretion in human PBMC; assay type: cell-based; conditions: IFNβ in supernatant by ELISA, 5 hours incubation
Description: Test Example 3. IFNβ Secretion in Human PBMC
• 1. Human PBMC cells (STEMCELL Technologies) • 2. Lymphocyte Medium (Zenbio) • 3. Culture and compound dilution media: RPMI with high glucose and glutamine (Genesee, Cat. #25-506), 10% fetal bovine serum (Life Technologies, Cat. #10082147), 100 μg/ml Normocin (InvivoGen, Cat. #ant-nr-2) and Penicillin-Streptomycin (100×) (Life Technologies, Cat. #15140122) • 4. Human IFNβ Quantikine ELISA kit (R&D systems) • 5. Infinite M1000 plate reader (TECAN) Experimental Procedure
Cryopreserved peripheral blood human mononuclear cells (PBMCs) were rapidly thawed and resuspended in Lymphocyte Media and centrifuged at 500×g for 5 minutes. The supernatant was removed and the cell pellets were gently resuspended in cell culture and compound dilution media. Human PBMC cells were plated in a 96-well format at a concentration of 1.5×10^5 cells per well. The test compounds, at varying concentrations, or vehicle control (<0.3% DMSO) were mixed with the cells giving a final volume of 150 μl per well. The plates were incubated for 5 hours in a humidified, 5% CO2 incubator at 37° C. After incubation, the human IFNβ in the supernatant and the IFNβ standard controls were measured using human IFNβ Quantikine ELISA kit according to the manufacturer's protocol. The absorbance at 450 nm was measured with Infinite M1000 plate reader and corrected by background reading at 540 nm of each well. The amount of […] based on the standard curves. The plot of IFNβ concentration versus the log of compound concentration was fit in GraphPad Prism with a 4-parameter concentration response equation to calculate EC50 and Emax.

Row | SMILES | ΔTm at 100 µM [1] [°C] | pEC50 [2] | pEC50 (Human PBMC cells)
1 | C=CC[C@H]1COc2cc(C(N)=O)cc3nc(NC(=O)c4cc(C)nn4CC)n1c23 [Example 1, (S)-3-allyl-2-(1-ethyl-3-methyl-1H-pyrazole-5-carboxamido)-3,4-dihydro-5-oxa-1,2a-diazaacenaphthylene-7-carboxamide] | 5.7 | 5.80 | 5.96
2 | CC=CCC1COc2cc(C(N)=O)cc3nc(NC(=O)c4cc(C)nn4CC)n1c23 (stereo not shown) [Example 5, 3-(but-2-en-1-yl)-2-(1-ethyl-3-methyl-1H-pyrazole-5-carboxamido)-3,4-dihydro-5-oxa-1,2a-diazaacenaphthylene-7-carboxamide] | 2.9 | 5.52 | 5.70
3 | C/C=C\C[C@H]1COc2cc(C(N)=O)cc3nc(NC(=O)c4cc(C)nn4CC)n1c23 [Example 5-2, (S,Z)-3-(but-2-en-1-yl)-2-(1-ethyl-3-methyl-1H-pyrazole-5-carboxamido)-3,4-dihydro-5-oxa-1,2a-diazaacenaphthylene-7-carboxamide] | – | 5.89 | 5.72
4 | C/C=C/C[C@H]1COc2cc(C(N)=O)cc3nc(NC(=O)c4cc(C)nn4CC)n1c23 [Example 5-3, (S,E)-3-(but-2-en-1-yl)-2-(1-ethyl-3-methyl-1H-pyrazole-5-carboxamido)-3,4-dihydro-5-oxa-1,2a-diazaacenaphthylene-7-carboxamide] | – | 5.89 | 5.82
5 | C=CC[C@H]1COc2cc(C(N)=O)cc3nc(NC(=O)c4cc(C)nn4CCC)n1c23 [Example 11, (S)-3-allyl-2-(3-methyl-1-propyl-1H-pyrazole-5-carboxamido)-3,4-dihydro-5-oxa-1,2a-diazaacenaphthylene-7-carboxamide] | 5.5 | – | 4.77
6 | CCn1nc(C)cc1C(=O)Nc1nc2cc(C(N)=O)cc(OC)c2n1CC=C[C@H]1COc2cc(C(N)=O)cc3nc(NC(=O)c4cc(C)nn4CC)n1c23 [Example 14, (S)-3-(3-(5-carbamoyl-2-(1-ethyl-3-methyl-1H-pyrazole-5-carboxamido)-7-methoxy-1H-benzo[d]imidazol-1-yl)prop-1-en-1-yl)-2-(1-ethyl-3-methyl-1H-pyrazole-5-carboxamido)-3,4-dihydro-5-oxa-1,2a-diazaacenaphthylene-7-carboxamide] | 4 | – | 5.74
7 | CCn1nc(C)cc1C(=O)Nc1nc2cc(C(N)=O)cc(OC)c2n1C/C=C/C[C@H]1COc2cc(C(N)=O)cc3nc(NC(=O)c4cc(C)nn4CC)n1c23 [Example 15, (S,E)-3-(4-(5-carbamoyl-2-(1-ethyl-3-methyl-1H-pyrazole-5-carboxamido)-7-methoxy-1H-benzo[d]imidazol-1-yl)but-2-en-1-yl)-2-(1-ethyl-3-methyl-1H-pyrazole-5-carboxamido)-3,4-dihydro-5-oxa-1,2a-diazaacenaphthylene-7-carboxamide] | 3 | – | 4.72
8 | CCn1nc(C)cc1C(=O)Nc1nc2cc(C(N)=O)ccc2n1CCC[C@H]1COc2cc(C(N)=O)cc3nc(NC(=O)c4cc(C)nn4CC)n1c23 [Example 18, (S)-3-(3-(5-carbamoyl-2-(1-ethyl-3-methyl-1H-pyrazole-5-carboxamido)-1H-benzo[d]imidazol-1-yl)propyl)-2-(1-ethyl-3-methyl-1H-pyrazole-5-carboxamido)-3,4-dihydro-5-oxa-1,2a-diazaacenaphthylene-7-carboxamide] | – | 6.80 | 6.52
9 | CCn1nc(C)cc1C(=O)Nc1nc2cc(C(N)=O)cc(OCCCO)c2n1CCC[C@H]1COc2cc(C(N)=O)cc3nc(NC(=O)c4cc(C)nn4CC)n1c23 [Example 19, (S)-3-(3-(5-carbamoyl-2-(1-ethyl-3-methyl-1H-pyrazole-5-carboxamido)-7-(3-hydroxypropoxy)-1H-benzo[d]imidazol-1-yl)propyl)-2-(1-ethyl-3-methyl-1H-pyrazole-5-carboxamido)-3,4-dihydro-5-oxa-1,2a-diazaacenaphthylene-7-carboxamide] | – | – | 6.15
10 | CCn1nc(C)cc1C(=O)Nc1nc2cc(C(N)=O)cc(OCCCN3CCOCC3)c2n1CCC[C@H]1COc2cc(C(N)=O)cc3nc(NC(=O)c4cc(C)nn4CC)n1c23 [Example 22, (S)-3-(3-(5-carbamoyl-2-(1-ethyl-3-methyl-1H-pyrazole-5-carboxamido)-7-(3-morpholinopropoxy)-1H-benzo[d]imidazol-1-yl)propyl)-2-(1-ethyl-3-methyl-1H-pyrazole-5-carboxamido)-3,4-dihydro-5-oxa-1,2a-diazaacenaphthylene-7-carboxamide] | – | 7.00 | 6.47
11 | CCn1nc(C)cc1C(=O)Nc1nc2cc(C(N)=O)cc(OCCCN(C)C)c2n1CCC[C@H]1COc2cc(C(N)=O)cc3nc(NC(=O)c4cc(C)nn4CC)n1c23 [Example 24, (S)-3-(3-(5-carbamoyl-7-(3-(dimethylamino)propoxy)-2-(1-ethyl-3-methyl-1H-pyrazole-5-carboxamido)-1H-benzo[d]imidazol-1-yl)propyl)-2-(1-ethyl-3-methyl-1H-pyrazole-5-carboxamido)-3,4-dihydro-5-oxa-1,2a-diazaacenaphthylene-7-carboxamide] | 12 | 6.46 | –
12 | C=CCOc1cc(C(N)=O)cc2nc(NC(=O)c3cc(C)nn3CC)n(CCC[C@H]3COc4cc(C(N)=O)cc5nc(NC(=O)c6cc(C)nn6CC)n3c45)c12 [Example 25, (S)-3-(3-(7-(allyloxy)-5-carbamoyl-2-(1-ethyl-3-methyl-1H-pyrazole-5-carboxamido)-1H-benzo[d]imidazol-1-yl)propyl)-2-(1-ethyl-3-methyl-1H-pyrazole-5-carboxamido)-3,4-dihydro-5-oxa-1,2a-diazaacenaphthylene-7-carboxamide] | 13 | 6.30 | –
